{"source": "patent US6677313B1", "about": "“Method for gene therapy using nucleic acid loaded polymeric microparticles” (Brown University Research Foundation, priority 1995, dated 2004)", "assay": "in vivo", "conditions": "rat, serum, po, 25 mg/kg", "protocol": "Dicumarol containing microspheres were produced as described above in Example 2, subsection 1. Equal doses of dicumarol, spray dried dicumarol and polyanhydride (FA:SA) 20:80 encapsulated dicumarol (25 mg drug/kg body weight) suspended in 1.5 ml maple syrup were fed to catheterized rats (250-350 g). Blood samples were taken at regular intervals and serum was assayed for dicumarol concentrations using a UV spectrophotometric method.", "data": [{"smiles": "O=c1oc2ccccc2c(O)c1Cc1c(O)c2ccccc2oc1=O", "note": "[STOCK DICUMAROL CONTROL, dicumarol]", "values": [{"measurement": "AUC", "value": "171 ± 33.2", "unit": "µg·h/mL"}, {"measurement": "Cmax", "value": "11500 ± 1100", "unit": "ng/mL"}, {"measurement": "Tmax", "value": "9.87 ± 1.76", "unit": "h"}, {"measurement": "half-life", "value": "18.2 ± 3.3", "unit": "h"}]}]}
